Data taken from paper PMC9698607, “Dual Functionalized Liposomes for Selective Delivery of Poorly Soluble Drugs to Inflamed Brain Regions” (Pharmaceutics, 2022).

Tests used:
[1] = test system: TNFα release from BV2 microglial cells; test: TNFα ELISA in LPS-stimulated BV2 cells; type: cell-based, mouse; settings: free glibenclamide 10 to 80 μM for 60 h, then LPS for 8 h
Description: (§1) BV2 microglial cells, RAW264.7 and Neuro2A (N2A) cells were cultured in DMEM supplemented with 10% heat-inactivated FBS, 100 U/mL penicillin and 100 μg/mL streptomycin at 37 °C in a humidified 5% CO2 atmosphere. The day before the experiment, BV2 cells were plated on 24 well plates at 80,000 cells/well; LPS was dissolved in PBS as a stock solution (1 mg/mL), and stored at −20 °C. BV2 cells seeded into multiplates were exposed to LPS (0.5 µg/mL) in presence or absence of glibenclamide (40 µM), empty mApoE-MSLP1-liposomes and mApoE-MSLP1 loaded with glibenclamide. Cells were left in vitro for 40 or 60 h, treated with LPS for additional 8 h before using supernatants for an ELISA assessment of TNFα and IL-6. BV2 cells were seeded in 24-well plates at 80,000 cells/well, then treated with LPS (0.5 µg/mL) to induce TNFα and IL-6 production. Cells were treated for 8 h. Cytokine levels in cells supernatants collected before and after treatment were assayed using the mouse TNF-alpha DuoSet ELISA (R&D Systems, DY410) and the mouse IL-6 DuoSet ELISA kit (R&D Systems, DY406), according to manufacturer’s instructions.

[2] = test system: IL-6 release from BV2 microglial cells; test: IL-6 ELISA in LPS-stimulated BV2 cells; type: cell-based, mouse; settings: free glibenclamide 10 to 80 μM for 60 h, then LPS for 8 h
Description: as §1, with “BV2 cells seeded into multiplates were exposed to LPS (0.5 µg/mL) in presence or absence of glibenclamide (40 µM), empty mApoE-MSLP1-liposomes and mApoE-MSLP1 loaded with glibenclamide.” left out

primary neurons [3] = test: LDH-Glo cytotoxicity assay on primary neurons; type: cell-based; settings: primary mouse cortical neurons; 24 h; 0.085, 0.85, 8.5 and 85 µM glibenclamide; supernatants
Description: Primary neuronal cell cultures were established from C57Bl/6J E17.5 embryonic cerebral cortices (Charles River), according to our published protocol [37]. Briefly, we dissected forebrains in cold HBSS supplemented with 0.6% glucose and 5 mM HEPES pH 7.4 to obtain cerebral cortices. Cortices were mechanically dissociated in single cell preparations and re-suspended in culture medium containing Neurobasal, 5 mM HEPES pH 7.4, 0.6% glucose and the 1× B27 supplement. Cells were plated at 30,000 cells/well on 96 multi wells previously coated with poly lysine (0.2 mg/mL), and primed with Dulbecco’s modified Eagle’s media (DMEM) 20% FBS. […] Neurons were left to mature for 16 days, and upon visual inspection were used for cytotoxicity assays.
A bioluminescent lactate dehydrogenase (LDH)-release assay (LDH-Glo Cytotoxicity Assay, Promega) was used to assess cytotoxicity in supernatants of cells treated with liposomes according to manufacturer’s instruction. […] In each experiment, we calculated the % of cytotoxicity as follows:(Exp.LDH Release − MB)/(Max LDH Release Control − MB)(2) where MB is Medium Background.

primary neurons [4] = test: CCK8 cell viability assay on primary neurons; type: cell-based; settings: primary mouse cortical neurons, 16 days in vitro; 24 h; 0.085, 0.85, 8.5 and 85 µM glibenclamide; compared with DMSO controls
Description: C57BL6J mice were maintained under pathogen-free conditions at San Raffaele Hospital mouse facility (Milan, Italy). Procedures were performed according to the guidelines of the Institutional Animal Care and Use Committee of the San Raffaele Scientific Institute and the Ministry of Health (protocol number 372/2021-PR). Primary neuronal cell cultures were established from C57Bl/6J E17.5 embryonic cerebral cortices (Charles River), according to our published protocol. Briefly, we dissected forebrains in cold HBSS supplemented with 0.6% glucose and 5 mM HEPES pH 7.4 to obtain cerebral cortices. Cortices were mechanically dissociated in single cell preparations and re-suspended in culture medium containing Neurobasal, 5 mM HEPES pH 7.4, 0.6% glucose and the 1× B27 supplement. Cells were plated at 30,000 cells/well on 96 multi wells previously coated with poly lysine (0.2 mg/mL), and primed with Dulbecco’s modified Eagle’s media (DMEM) 20% FBS. Cells were maintained in a humidified 5% CO2/95% air environment at 37 °C. […] Cell viability was measured using the Cell Counting Kit-8 (CCK8) Metabolic Assay Kit, following the manufacturer’s protocol (Sigma-Aldrich, Burlington, VT, USA). […] We measured samples absorbance every 30 min at 450 nm, using a Multiskan Sky (Thermo fisher scientific, Waltham, MA, USA). Absorbance readings were subsequently normalized to the mean value of the controls.

Recombinant human MMP2 = molecular target: T1, Recombinant human MMP2 (Homo sapiens, UniProt P08253); test: MMP2 activity assay on MSLPs (HPLC); type: biochemical; settings: 48 h, 37 °C, 0.1 μg/mL rhMMP2, 100 μM MSLP, 50 mM Tris, 10 mM CaCl2, 150 mM NaCl, 0.05% Brij 35, pH 7.5
T1 construct: purchased R&D Systems
T1 sequence (P08253 110-660): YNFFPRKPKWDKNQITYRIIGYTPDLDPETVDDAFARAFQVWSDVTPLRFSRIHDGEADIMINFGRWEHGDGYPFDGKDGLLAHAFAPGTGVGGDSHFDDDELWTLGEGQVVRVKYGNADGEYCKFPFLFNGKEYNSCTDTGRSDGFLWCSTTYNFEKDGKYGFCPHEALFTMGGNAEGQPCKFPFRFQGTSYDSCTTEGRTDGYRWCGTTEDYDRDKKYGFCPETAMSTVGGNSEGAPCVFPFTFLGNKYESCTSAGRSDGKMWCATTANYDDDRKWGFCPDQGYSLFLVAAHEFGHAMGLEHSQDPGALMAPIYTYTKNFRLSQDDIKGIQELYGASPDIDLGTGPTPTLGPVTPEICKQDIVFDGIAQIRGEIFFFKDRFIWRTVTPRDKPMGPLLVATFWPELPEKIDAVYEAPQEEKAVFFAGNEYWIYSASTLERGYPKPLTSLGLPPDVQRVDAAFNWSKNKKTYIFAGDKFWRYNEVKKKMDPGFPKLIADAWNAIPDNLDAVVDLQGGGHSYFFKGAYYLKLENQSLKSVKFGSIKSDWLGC
Description: (§2) Recombinant human MMP2 (rhMMP2, R&D system, Minneapolis, MN, USA) was diluted to 0.2 μg/mL in 200 µL assay buffer (50 mm Tris, 10 mM CaCl2, 150 mm NaCl, 0.05% (w/v) Brij 35, pH 7.5). The enzymatic reaction was started by adding 200 μL of 200 μM MSLPs in the assay buffer, and was stirred at 37 °C for 48 h. Final concentrations were 0.1 μg/mL for MMP2 and 100 μM for MSLPs. The reaction was monitored by HPLC between 1 and 48 h on a small aliquot, by deactivating the enzyme with a 10% aqueous TFA solution. MSLPs’ solutions in assay buffer (see below) were used as a blank. A pronase/unspecific protease activity assay on MSLPs was carried out by diluting a mixture of proteolytic enzymes at 2 ng/mL, 0.2 µg/mL and 20 µg/mL in 200 µL assay buffer (50 mm Tris, 10 mm CaCl2, 150 mm NaCl, 0.05% (w/v) Brij 35, pH 7.5). The enzymatic reaction was started by adding 200 μL of 200 μM MSLPs in the assay buffer, and was stirred at 37 °C for 48 h. Final concentrations of 1 ng/mL, 0.1 μg/mL and 10 μg/mL (Pronase) and 100 μM (MSLPs) were used. The reaction was monitored by HPLC between 1 and 48 h on a small aliquot, by deactivating the enzymes with a 10% aqueous TFA solution. MSLPs’ solutions in assay buffer were used as a blank.

pronase = test: Pronase/unspecific protease activity assay on MSLPs (HPLC); type: biochemical; settings: 100 μM MSLP, 37 °C, up to 48 h, assay buffer pH 7.5
Description: as §2

In the case of `COc1ccc(Cl)cc1C(=O)NCCc1ccc(S(=O)(=O)NC(=O)NC2CCCCC2)cc1` [glibenclamide], the TNFα levels [1] is reported as “dose-dependent reduction”, the IL-6 levels [2] is reported as “dose-dependent reduction” and the “cytotoxicity (LDH release)” value (primary neurons [3]) is reported as “did not increase cytotoxicity”. For the same compound, the “cell viability (CCK8)” value (primary neurons [4]) was “did not affect cell viability”.

For “SKK(stearate)GSALGQIGPSK(stearate)KS [c-MSLP]”, the “HPLC peak of lipopeptide after incubation with MMP2” value (shortened to “HPLC peak of lipopeptide”) (Recombinant human MMP2) was “still present”.

For “SKK(stearate)SGAKPRA-LTASK(stearate)KS [MSLP-2, MMP2/9-responsive lipopeptide with two stearate tails]”, the “HPLC peak of lipopeptide” value (Recombinant human MMP2) was “still present”, the cleavage by pronase (pronase; 10 μg/mL pronase) was “complete cleavage” and the “change of intensity of HPLC peak with pronase” value (pronase; lower pronase concentrations (1 ng/mL, 0.1 μg/mL)) was “no significant change”.

“SKK(stearate)SGPLGIAGQSK(stearate)KS [MSLP-1, MMP2-responsive lipopeptide with two stearate tails]” was tested, and the “HPLC peak of lipopeptide” value (Recombinant human MMP2) was “completely disappeared”.
